Results taken from patent US12577206B2 (BRISTOL-MYERS SQUIBB COMPANY, priority 2020, dated 2026).

How the values were obtained:
human FPR1 = target: T1, human FPR1 (Homo sapiens, UniProt P21462); assay: FPR1 cyclic adenosine monophosphate (cAMP) assay; format: cell-based; details: CHO cells overexpressing human FPR1; forskolin 10 μM; inhibition of cAMP production; HTRF; read-out: hFPR1 cAMP2 EC50
T1 sequence (P21462 1-350): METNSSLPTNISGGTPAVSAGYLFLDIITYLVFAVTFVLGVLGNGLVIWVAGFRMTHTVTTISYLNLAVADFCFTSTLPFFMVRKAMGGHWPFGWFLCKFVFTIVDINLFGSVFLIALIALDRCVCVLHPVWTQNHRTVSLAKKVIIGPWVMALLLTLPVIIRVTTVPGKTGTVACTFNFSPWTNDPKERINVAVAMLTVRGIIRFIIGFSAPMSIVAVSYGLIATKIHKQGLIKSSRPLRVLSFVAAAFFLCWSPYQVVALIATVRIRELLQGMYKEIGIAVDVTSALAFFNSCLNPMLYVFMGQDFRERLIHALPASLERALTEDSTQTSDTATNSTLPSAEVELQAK
Method in brief: (§1)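 CHO/hFPR1 4,000 cells/well, forskolin 10 μM final; CHO/hFPR2 2,000 cells/well, forskolin 5 μM final. IBMX 200 μM, DMSO 1%, DPBS + Ca/Mg + 0.1% BSA, 30 min rt. HTRF cAMP; 4-PL fit.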

human FPR2 = target: T2, human FPR2 (Homo sapiens, UniProt P25090); assay: FPR2 cyclic adenosine monophosphate (cAMP) assay; format: cell-based; details: CHO cells overexpressing human FPR2; forskolin 5 μM; inhibition of cAMP production; HTRF; read-out: hFPR2 cAMP2 EC50
T2 sequence (P25090 1-351): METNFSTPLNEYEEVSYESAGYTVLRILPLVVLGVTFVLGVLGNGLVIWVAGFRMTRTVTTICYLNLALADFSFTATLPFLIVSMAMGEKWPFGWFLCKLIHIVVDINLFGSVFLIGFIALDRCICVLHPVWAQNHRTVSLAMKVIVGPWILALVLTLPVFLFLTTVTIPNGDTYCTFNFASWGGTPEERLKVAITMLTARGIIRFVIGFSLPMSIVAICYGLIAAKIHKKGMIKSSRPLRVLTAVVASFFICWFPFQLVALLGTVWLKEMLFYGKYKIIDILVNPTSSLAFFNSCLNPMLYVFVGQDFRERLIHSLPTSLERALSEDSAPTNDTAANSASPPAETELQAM
Method in brief: as §1

SMILES: COc1cc(F)c(-c2c(NC(=O)c3ccc(OC(F)F)cc3)c(=O)n(-c3nc(C(F)(F)F)ccc3OCC3(C)COC3)n2C)c(F)c1 [Example 358, N-(5-(2,6-Difluoro-4-methoxyphenyl)-1-methyl-2-(3-((3-methyloxetan-3-yl)methoxy)-6-(trifluoromethyl)pyridin-2-yl)-3-oxo-2,3-dihydro-1H-pyrazol-4-yl)-4-(difluoromethoxy)benzamide]
- EC50 (human FPR1): > 10000 nM
- EC50 (human FPR2): 9 nM

SMILES: COc1cc(F)c(-c2c(NC(=O)c3ccc(OC(F)F)cc3)c(=O)n(-c3cc(C)cc(OC4CCOC4)n3)n2C)c(F)c1 (stereo not shown) [Example 359, N-(5-(2,6-Difluoro-4-methoxyphenyl)-1-methyl-2-(4-methyl-6-((tetrahydrofuran-3-yl)oxy)pyridin-2-yl)-3-oxo-2,3-dihydro-1H-pyrazol-4-yl)-4-(difluoromethoxy)benzamide]
- EC50 (human FPR1): > 10000 nM
- EC50 (human FPR2): 5 nM

SMILES: COc1cc(F)c(-c2c(NC(=O)c3ccc(OC(F)F)cc3)c(=O)n(-c3cc(C)cc(OC4CCOC4)n3)n2C)c(F)c1 (stereo not shown) [Example 360, N-(5-(2,6-Difluoro-4-methoxyphenyl)-1-methyl-2-(4-methyl-6-((tetrahydrofuran-3-yl)oxy)pyridin-2-yl)-3-oxo-2,3-dihydro-1H-pyrazol-4-yl)-4-(difluoromethoxy)benzamide]
- EC50 (human FPR1): > 10000 nM
- EC50 (human FPR2): 4 nM

SMILES: COc1cc(F)c(-c2c(NC(=O)c3ccc(OC(F)F)cc3)c(=O)n(-c3cc(C)cc(C4CCN(C)CC4)n3)n2C)c(F)c1 [Example 361]
- EC50 (human FPR1): > 10000 nM
- EC50 (human FPR2): 1 nM

SMILES: COc1cc(F)c(-c2c(NC(=O)c3ccc(OC(F)F)cc3)c(=O)n(-c3cc(C)cc(C#N)n3)n2C)c(F)c1 [Example 362, N-(2-(6-Cyano-4-methylpyridin-2-yl)-5-(2,6-difluoro-4-methoxyphenyl)-1-methyl-3-oxo-2,3-dihydro-1H-pyrazol-4-yl)-4-(difluoromethoxy)benzamide]
- EC50 (human FPR1): > 10000 nM
- EC50 (human FPR2): 10 nM

SMILES: COc1cc(C2CCN(C)CC2)nc(-n2c(=O)c(NC(=O)c3ccc(OC(F)F)cc3)c(-c3c(F)cc(OC)cc3F)n2C)c1 [Example 363, N-(5-(2,6-Difluoro-4-methoxyphenyl)-2-(4-methoxy-6-(1-methylpiperidin-4-yl)pyridin-2-yl)-1-methyl-3-oxo-2,3-dihydro-1H-pyrazol-4-yl)-4-(difluoromethoxy)benzamide]
- EC50 (human FPR1): > 10000 nM
- EC50 (human FPR2): 3 nM

SMILES: COc1cc(N2CCOCC2)nc(-n2c(=O)c(NC(=O)c3ccc(OC(F)F)cc3)c(-c3c(F)cc(OC)cc3F)n2C)c1 [Example 364, N-(5-(2,6-Difluoro-4-methoxyphenyl)-2-(4-methoxy-6-morpholinopyridin-2-yl)-1-methyl-3-oxo-2,3-dihydro-1H-pyrazol-4-yl)-4-(difluoromethoxy)benzamide]
- EC50 (human FPR1): 2100 nM
- EC50 (human FPR2): 62 nM

SMILES: COc1cc(C2CCN(S(C)(=O)=O)CC2)nc(-n2c(=O)c(NC(=O)c3ccc(OC(F)F)cc3)c(-c3c(F)cc(OC)cc3F)n2C)c1 [Example 366, N-(5-(2,6-Difluoro-4-methoxyphenyl)-2-(4-methoxy-6-(1-(methylsulfonyl)piperidin-4-yl)pyridin-2-yl)-1-methyl-3-oxo-2,3-dihydro-1H-pyrazol-4-yl)-4-(difluoromethoxy)benzamide]
- EC50 (human FPR1): > 10000 nM
- EC50 (human FPR2): 7 nM

SMILES: COc1cc(C2CCN(CCO)CC2)nc(-n2c(=O)c(NC(=O)c3ccc(OC(F)F)cc3)c(-c3c(F)cc(OC)cc3F)n2C)c1 [Example 368, N-(5-(2,6-Difluoro-4-methoxyphenyl)-2-(6-(1-(2-hydroxyethyl)piperidin-4-yl)-4-methoxypyridin-2-yl)-1-methyl-3-oxo-2,3-dihydro-1H-pyrazol-4-yl)-4-(difluoromethoxy)benzamide]
- EC50 (human FPR1): > 10000 nM
- EC50 (human FPR2): 7 nM

SMILES: COc1cc(F)c(-c2c(NC(=O)c3ccc(OC(F)F)cc3)c(=O)n(-c3nc(C(F)(F)F)ccc3OCC3CCOC3)n2C)c(F)c1 (stereo not shown) [Example 369, N-(5-(2,6-Difluoro-4-methoxyphenyl)-1-methyl-3-oxo-2-(3-((tetrahydrofuran-3-yl)methoxy)-6-(trifluoromethyl)pyridin-2-yl)-2,3-dihydro-1H-pyrazol-4-yl)-4-(difluoromethoxy)benzamide]
- EC50 (human FPR1): > 10000 nM
- EC50 (human FPR2): 5 nM

SMILES: COc1cc(F)c(-c2c(NC(=O)c3ccc(OC(F)F)cc3)c(=O)n(-c3nc(C(F)(F)F)ccc3OCC3CCOC3)n2C)c(F)c1 (stereo not shown) [Example 370, N-(5-(2,6-Difluoro-4-methoxyphenyl)-1-methyl-3-oxo-2-(3-((tetrahydrofuran-3-yl)methoxy)-6-(trifluoromethyl)pyridin-2-yl)-2,3-dihydro-1H-pyrazol-4-yl)-4-(difluoromethoxy)benzamide]
- EC50 (human FPR1): > 10000 nM
- EC50 (human FPR2): 5 nM

SMILES: COc1cc(F)c(-c2c(NC(=O)c3ccc(OC(F)F)cc3)c(=O)n(-c3nc(C(F)(F)F)ccc3OC)n2C)c(F)c1 [Example 371, N-(5-(2,6-Difluoro-4-methoxyphenyl)-2-(3-methoxy-6-(trifluoromethyl)pyridin-2-yl)-1-methyl-3-oxo-2,3-dihydro-1H-pyrazol-4-yl)-4-(difluoromethoxy)benzamide]
- EC50 (human FPR1): 240 nM
- EC50 (human FPR2): 6 nM

SMILES: COc1cc(F)c(-c2c(NC(=O)c3ccc(OC(F)F)cc3)c(=O)n(-c3nc(C(F)(F)F)ccc3OCCO)n2C)c(F)c1 [Example 372, N-(5-(2,6-Difluoro-4-methoxyphenyl)-2-(3-(2-hydroxyethoxy)-6-(trifluoromethyl)pyridin-2-yl)-1-methyl-3-oxo-2,3-dihydro-1H-pyrazol-4-yl)-4-(difluoromethoxy)benzamide]
- EC50 (human FPR1): > 10000 nM
- EC50 (human FPR2): 6 nM

SMILES: COc1cc(F)c(-c2c(NC(=O)c3ccc(OC(F)F)cc3)c(=O)n(-c3nc(C(F)(F)F)ccc3OC[C@H](C)O)n2C)c(F)c1 [Example 373, (S)-N-(5-(2,6-Difluoro-4-methoxyphenyl)-2-(3-(2-hydroxypropoxy)-6-(trifluoromethyl)pyridin-2-yl)-1-methyl-3-oxo-2,3-dihydro-1H-pyrazol-4-yl)-4-(difluoromethoxy)benzamide]
- EC50 (human FPR1): > 10000 nM
- EC50 (human FPR2): 16 nM

SMILES: COc1cc(F)c(-c2c(NC(=O)c3ccc(OC(F)F)cc3)c(=O)n(-c3nc(C(F)(F)F)ccc3NCCO)n2C)c(F)c1 [Example 374, N-(5-(2,6-Difluoro-4-methoxyphenyl)-2-(3-((2-hydroxyethyl)amino)-6-(trifluoromethyl)pyridin-2-yl)-1-methyl-3-oxo-2,3-dihydro-1H-pyrazol-4-yl)-4-(difluoromethoxy)benzamide]
- EC50 (human FPR1): 320 nM
- EC50 (human FPR2): 22 nM

SMILES: COc1cc(F)c(-c2c(NC(=O)c3ccc(OC(F)F)cc3)c(=O)n(-c3nc(C(F)(F)F)ccc3N(C)CCO)n2C)c(F)c1 [Example 375, N-(5-(2,6-Difluoro-4-methoxyphenyl)-2-(3-((2-hydroxyethyl)(methyl)amino)-6-(trifluoromethyl)pyridin-2-yl)-1-methyl-3-oxo-2,3-dihydro-1H-pyrazol-4-yl)-4-(difluoromethoxy)benzamide]
- EC50 (human FPR1): > 10000 nM
- EC50 (human FPR2): 3 nM

SMILES: COc1cc(C)nc(-n2c(=O)c(NC(=O)c3ccc(OC(F)F)cc3)c(-c3c(F)cc(OC)cc3F)n2C)c1 [Example 376, N-(5-(2,6-Difluoro-4-methoxyphenyl)-2-(4-methoxy-6-methylpyridin-2-yl)-1-methyl-3-oxo-2,3-dihydro-1H-pyrazol-4-yl)-4-(difluoromethoxy)benzamide]
- EC50 (human FPR1): > 10000 nM
- EC50 (human FPR2): 5 nM

SMILES: COc1cc(F)c(-c2c(NC(=O)c3ccc(OC(F)F)cc3)c(=O)n(-c3cc(OC(C)C)cc(OCC(C)(C)O)n3)n2C)c(F)c1 [Example 377, N-(5-(2,6-Difluoro-4-methoxyphenyl)-2-(6-(2-hydroxy-2-methylpropoxy)-4-isopropoxypyridin-2-yl)-1-methyl-3-oxo-2,3-dihydro-1H-pyrazol-4-yl)-4-(difluoromethoxy)benzamide]
- EC50 (human FPR1): 470 nM
- EC50 (human FPR2): 8 nM

SMILES: COc1cc(OCCC(C)(C)O)nc(-n2c(=O)c(NC(=O)c3ccc(OC(F)F)cc3)c(-c3c(F)cc(OC)cc3F)n2C)c1 [Example 379, N-(5-(2,6-Difluoro-4-methoxyphenyl)-2-(6-(3-hydroxy-3-methylbutoxy)-4-methoxypyridin-2-yl)-1-methyl-3-oxo-2,3-dihydro-1H-pyrazol-4-yl)-4-(difluoromethoxy)benzamide]
- EC50 (human FPR1): > 10000 nM
- EC50 (human FPR2): 7 nM

SMILES: COc1cc(OCC(O)C(F)(F)F)nc(-n2c(=O)c(NC(=O)c3ccc(OC(F)F)cc3)c(-c3c(F)cc(OC)cc3F)n2C)c1 (stereo not shown) [Example 380, N-(5-(2,6-Difluoro-4-methoxyphenyl)-2-(4-methoxy-6-(3,3,3-trifluoro-2-hydroxypropoxy)pyridin-2-yl)-1-methyl-3-oxo-2,3-dihydro-1H-pyrazol-4-yl)-4-(difluoromethoxy)benzamide]
- EC50 (human FPR1): 2300 nM
- EC50 (human FPR2): 2 nM
